Assays:
xanthine oxidase (XO) = experiment: XO levels in serum and liver of hyperuricemic mice; assay type: in vivo, Balb/C mice; conditions: AL 20 mg/kg; P<0.05
Protocol: (§1) Due to the presence of uricase in mice, a hyperuricemic mouse model was established by using uricase inhibitor and large amounts of purine. Mice were randomly divided into five groups (n=10), including the control group (NC), model group (MC), 20 mg/kg of AL (Shimao Tianjie Pharmaceutical Co. Ltd, Jiangsu, China) group, 10 μg BHA group (10BHA) and 50 μg BHA group (50BHA). Oral administration of AL and intraperitoneal injection of BHA were administered according to the required dose, and all mice were gavage fed 20 g/kg yeast extract powder 12 h prior to the administration of AL and BHA except for NC mice for 8 days. From the 6th to 8th day, 1-h prior to AL and BHA administration, 300 mg/kg of OXO (Sigma, USA) was intraperitoneally injected to all of the mice except those in the control group. At 1 h after the final drug administration, blood was sampled from caudal veins of the mice, serum was separated and their livers were quickly collected (FIG. 3A, E). All samples were stored at −80° C. until assay measurements were performed.
(§2) The serum UA concentrations and XO levels in the serum and liver were determined with a standard diagnostic kit (MAK077, MAK078 Sigma, USA) according to the manufacturer's instructions.

[1] = test system: factors related to oxidative stress; experiment: Factors related to oxidative stress in serum and liver of hyperuricemia mice (ELISA); assay type: in vivo, Balb/C mice
Protocol: as §1
(§3) The levels of reactive oxygen species (ROS, 43355), malondialdehyde (MDA, 43124) glutathione peroxidase (GSH-Px, 43390), superoxide dismutase (SOD, 43125), catalase (CAT, 43356), creatinine (Cr, 43353) and blood urea nitrogen (BUN, 43352) in the serum and livers of mice were determined using ELISA Kits (Yuanye Bio-Technology Co. Ltd, Shanghai, China) according to the manufacturer's instructions.

[2] = test system: creatinine (Cr) and blood urea nitrogen (BUN); experiment: Cr and urea nitrogen in serum and liver of hyperuricemic mice (renal function); assay type: in vivo, Balb/C mice; conditions: AL
Protocol: as §1, §3

hyperuricemic mice = experiment: Serum UA in OXO- and yeast extract-induced hyperuricemic mice; assay type: in vivo, Balb/C mice; conditions: 20 mg/kg AL oral, P<0.01
Protocol: (§4) Male Balb/C mice (n=50, 8 weeks: 18-22 g), purchased from Yisi Experimental Animal Technology Company Ltd, Jilin, China (SCXK (Ji)-2016-0003). These mice were housed in plastic cages and maintained on a 12-h light/12-h dark cycle (lights on 7:00-19:00 h) under standard laboratory conditions of 55% relative humidity and 23±1° C. They were given standard feed and tap water ad libitum. All experimental procedures were approved by the Animal Ethics Committee of Jilin University (Reference NO. 201605).
Due to the presence of uricase in mice, a hyperuricemic mouse model was established by using uricase inhibitor and large amounts of purine. Mice were randomly divided into five groups (n=10), including the control group (NC), model group (MC), 20 mg/kg of AL (Shimao Tianjie Pharmaceutical Co. Ltd, Jiangsu, China) group, 10 μg BHA group (10BHA) and 50 μg BHA group (50BHA). Oral administration of AL and intraperitoneal injection of BHA were administered according to the required dose, and all mice were gavage fed 20 g/kg yeast extract powder 12 h prior to the administration of AL and BHA except for NC mice for 8 days. […]
as §2

[3] = test system: inflammatory cell infiltration in the synovium; experiment: Histopathological assessment of ankle joint synovium (H&E) in MSU crystal-injected rats; assay type: in vivo, Wistar rats; conditions: COL 0.3 mg/kg; MSU crystal-injected rats; H&E
Protocol: In one study, a histopathological assessment was conducted of synovium in ankle joints of rats after H&E staining. The right ankles of […] were excised and fixed in 4% paraformaldehyde, and subsequently decalcified using 10% ethylenediaminetetraacetic acid. They were then dehydrated via processing in alcohol/xylene mixtures with different proportions and concentrations. The histological sections were stained with hematoxylin and eosin. The histopathological changes of the joint synovium were assessed for the degree of inflammatory cell infiltrate, by an experienced histopathologist. Microscopy at magnifications of 40×, 100×, 200× and 400× were investigated for typical areas for each of the five groups.
The right ankles of rats were collected and fixed in 4% paraformaldehyde, and subsequently decalcified using 10% ethylenediaminetetraacetic acid. They were then dehydrated by processing in alcohol/xylene mixtures with different proportions and concentrations. The histological sections were later stained with hematoxylin and eosin for observation under an optical microscope (200×). The histopathological changes were analyzed with regard to deformaties of the joint synovium and infiltration by inflammatory cells into the ankle.

inflammation factors = experiment: Serum inflammation factors by ELISA in rats with MSU-induced acute gout; assay type: in vivo, Wistar rats
Protocol: (§5) An experimental model of MSU-induced gouty arthritis was used in order to evaluate the anti-inflammatory activities of BHA. Rats were randomly divided into five groups (n=10), include a control group (NC), a model group (MC), a 0.3 mg/kg colchicine group (COL), a 10 μg BHA group (10BHA) and a 50 μg BHA group (50BHA). MSU crystals were suspended in 0.9% sterile saline (30 mg/mL) prior to use. The colchicine group rats were orally administrated colchicine (0.3 mg/kg) for 8 days, and all rats except for the control group were injected with 3 mg of MSU (Sigma, USA) at the 6th day into the right ankle synovial space 1 h after gavage feeding. Meanwhile a turbid sample of MSU mixed with 100 μg of BHA or 500 μg of BHA per mL of solution for 10BHA rats or 50BHA rats. At the 8th day, 1 h after the administration of the final agents, blood was sampled from the caudal veins of the rats and the right ankle joints of the rats were collected and fixed in 4% paraformaldehyde. Serum was separated and stored at −80° C. prior to analysis (FIG. 2A, E).
The serum levels of interleukin-1α (IL-1α, 41734), IL-1β (43360), interleukin-6 (IL-6, 41731), interleukin-8 (IL-8, 41716), IL-10 (41736), interleukin-16 (IL-16, 41628), C—X—C motif chemokine 10 (CXCL10, 41570), monocyte chemoattractant protein 1 (MCP-1, 41640), macrophage inflammatory protein 1α (MIP-1α, 41645), interferon gamma (IFN-γ, 41739), TNF-α (41721), tumor necrosis factor-β (TNF-β, 41673), nuclear factor κ-light-chain-enhancer of activated B cells (NF-κB, 43358), 6-keto-prostaglandin F-1α (6-Keto-PGF1α, 41809) and prostaglandin E2 (PGE2, 41609) in rats were determined by the ELISA method using related Elisa Kits (Yuanye Bio-Technology Co. Ltd, Shanghai, China) according to the manufacturer's instructions.

[4] = test system: rats with MSU-induced acute gout; experiment: MSU crystal-induced acute gout in rats: ankle swelling ratio; assay type: in vivo, Wistar rats; conditions: COL 0.3 mg/kg; at 12 h; P<0.05
Protocol: Male Wistar rats (n=50, 8 weeks: 160-200 g) were purchased from Liaoning Changsheng Biotechnology Company Ltd, Jilin, China (SCXK (Liao)-2015-0001). These rats were housed in plastic cages and maintained on a 12-h light/12-h dark cycle (lights on 7:00-19:00 h) under standard laboratory conditions of 55% relative humidity and at 23° C.±1° C. They were given standard chow (Liaoning Changsheng Biotechnology Company Ltd, Jilin, China) and tap water ad libitum. All experimental procedures were approved by the Animal Ethics Committee of Jilin University (Reference NO. 201605).
as §5
The right ankle circumferences of all rats at 0, 4, 12, 24 and 48 h after MSU injection were measured. The swelling ratio (%) was used to evaluate the gouty arthritis and calculated according to the change of the circumference via the formula: Swelling ratio (%)=(Ct−C0)/C0, wherein, Ct represented the circumference at time t (in h) and C0 represented the circumference at 0 h.

[5] = test system: rats with MSU-induced gouty arthritis; experiment: Dose screening on MSU crystals-induced acute gout in rats: ankle swelling ratio; assay type: in vivo, Wistar rats; conditions: n=6, COL 0.3 mg/kg, at 4 h only, P<0.05
Protocol: as §4, with “48 male Wistar rats (8” for “Male Balb/C mice (n=50, 8”, “180-200” for “18-22”, “(Ji)-2016-0003),” for “(Ji)-2016-0003). These mice”, “23° C.±1°” for “23±1°”, “chow” for “feed”
An experimental model of MSU-induced gouty arthritis was used in order to evaluate the anti-inflammatory activities of BHA similar as previous studies with some modifications. Rats were randomly divided into eight groups (n=6), including control group (NC), model group (MC), 0.3 mg/kg colchicine group (COL), 5 μg BHA group (5BHA), 10 μg BHA group (10BHA), 25 μg BHA group (25BHA), 50 μg BHA group (50BHA), 100 μg BHA group (100BHA). MSU crystals were suspended in 0.9% sterile saline (30 mg/mL) prior to use. Rats in the colchicine group were orally administered colchicine (0.3 mg/kg) for 8 days. At day 6, MSU solution (100 μL of 30 mg/mL) was intra-articular injected at the right ankles of all rats except the NC group m which were injected with saline solution. 5BHA, 10BHA, 25BHA, 50BHA and 100BHA groups received intra-articular injections of 5, 10, 25, 50, or 100 μg BHA along with MSU solution (100 μL of 30 mg/mL MSU solution contains 5, 10, 25, 50 or 100 μg BHA) were administered according to the stated BHA doses.
The right ankle circumference of all rats at 0, 4, 12, 24 and 48 h after MSU injection was measured. The swelling ratio (%) was used for evaluating the gouty arthritis and calculated according to the change of the circumference following the formula: Swelling ratio (%)=(Ct−C0)/C0. Wherein, Ct represented the circumference at t hour and C0 represented the circumference at 0 hour.

[6] = hyperuricemia mice, AL 20 mg/kg oral, mean ± S.D., n=10
[7] = serum, MSU-induced acute gout rats, COL 0.3 mg/kg oral 8 days, mean ± S.D., n=10

## Oc1ncnc2[nH]ncc12 [AL, allopurinol, reference compound]
Xanthine oxidase (XO)
  reduction of XO levels in the serum compared to untreated mice: 23.76%
[1]; AL, hyperuricemic mice, P<0.05
  suppression of MDA level in the liver: 13.47%
  suppression of MDA level in the serum: 6.66%
  suppression of ROS level in the liver: 17.86%
  suppression of ROS level in the serum: 9.48%
[1]; [6]
  Liver CAT: 12.9 ± 1.3 U/mg
  Liver GSH-PX: 66.1 ± 7.2 U/mg
  Liver MDA: 3.1 ± 0.2 nmol/mg
  Liver ROS: 63.2 ± 6.2 U/mg
  Liver SOD: 48.5 ± 3.4 U/mg
  Serum CAT: 41.6 ± 5.6 U/mL
  Serum GSH-PX: 231.8 ± 7.7 U/mL
  Serum MDA: 10.2 ± 0.5 nmol/mL
  Serum ROS: 240.9 ± 23.9 U/mL
  Serum SOD: 159.2 ± 8 U/mL
[2]; P<0.01
  lowering of Cr in the liver: 15.28%
[2]; hyperuricemic mice, P<0.05
  lowering of Cr in the serum: 11.52%
  lowering of urea nitrogen in the liver: 25.25%
Hyperuricemic mice
  suppression of serum UA level: 46.38%

## COc1cc2c(c(OC)c1OC)-c1ccc(OC)c(=O)cc1[C@@H](NC(C)=O)CC2 [COL, colchicine, reference compound]
[3]
  pathological changes (inflammatory cell infiltration) in synovium: partially prevented the pathological changes
Inflammation factors; COL 0.3 mg/kg, P<0.05
  decrease of serum MCP-1 compared to rats injected with MSU: 9.93%
Inflammation factors; [7]
  6-Keto-PGF1α: 266.3 ± 12.7
  IFN-γ: 88.2 ± 35 pg/mL
  IL-1α: 74.3 ± 12.6 pg/mL
  IL-1β: 19.1 ± 1.2 pg/mL
  IL-6: 74.7 ± 7.9 pg/mL
  IL-8: 222.7 ± 11.5 pg/mL
  IL-10: 11.5 ± 0.7 pg/mL
  IL-16: 416.7 ± 16.1 pg/mL
  IP-10: 153.5 ± 20.3 pg/mL
  MCP-1: 311.5 ± 20.8 pg/mL
  MIP-1α: 294.6 ± 21.5 pg/mL
  NF-κB: 494.6 ± 132. pg/mL
  PGE2: 207.7 ± 10^ pg/mL
  TNF-α: 154.8 ± 8.5 pg/mL
  TNF-β: 124.8 ± 10.5 pg/mL
[4]
  ankle swelling compared to the MSU treated group: suppressed ankle swelling
[5]
  swelling of the ankle compared to MSU treated group: significantly suppressed swelling of the ankle

Reference: patent US11679123B2, “N-acylated hyaluronic acid for hyperuricemia and gouty arthritis” (Queen's University at Kingston, priority 2018, dated 2023)
